How the values were obtained:
[1] = tested on: AML cells (THP-1, MOLM-13, OCI-AML2, OCI-AML3, MDSL); experiment: Colony formation (clonogenic) assay in AML/MDS cell lines; assay type: cell-based, human; settings: 2 μM
Description: In order to determine viability after UBE2N knockdown or inhibition, 1×10^6 AML cells were washed with PBS and mixed with pre-diluted APC-conjugated Annexin V (BD Pharmigen, Franklin Lakes, N.J.) and Propidium iodide (PI) (Invitrogen ThermoFisher 00-6990-42, Waltham, Mass.). Cells were stained at room temperature for 15 minutes and suspended in 0.5 ml of Annexin V incubation buffer (eBiosciences 88-8007-74, San Diego, Calif.) for analysis using a BD FACS Canto System (BD Biosciences, San Jose, Calif.). For UBE2N knockdown experiments, PI−/GFP+ cells were sorted using a MoFlo XDP sorter (Beckman Coulter, Brea, Calif.) and plated in methylcellulose (StemCell Technologies H4236, Vancouver, CA) at 1000 cells/ml in 35 mm culture dishes. For UBE2N inhibition experiments, cell lines were plated in methycellulose (StemCell Technologies H4236, Vancouver, CA) at the indicated concentrations of inhibitor. Cells were incubated at 37° C. and 5% CO2. Colonies were scored after 7 days in culture. For UBE2N or UBE2N C87S overexpression experiments, MOLM-13 cells were transduced with lentivectors overexpressing UBE2N wild type or mutant in the presence of polybrene (8 μg/ml). […] Colonies were scored at 7 days. […] Colonies were manually scored at 14-16 days after plating or counted with STEMVision (StemCell Technologies, Vancouver, CA).

MOLM-13 cells = experiment: Trypan blue viability and Caspase 3 cleavage immunoblot; assay type: cell-based, human
Description: AML cell lines (5×10^3 cells/well) were seeded in 96-well plates and grown for 24 to 96 h in serum (10%)-containing medium in the presence or absence of inhibitors at the indicated concentrations. Proliferation was analyzed by means of an MTS assay using the CellTiter 96 Aqueous One Solution Cell Proliferation Assay (Promega, Madison, Wis., USA), according to the manufacturer's instructions. Data are mean with standard deviation from three independent experiments in technical triplicates. For the screening of 160 compounds from the UC library, the cell metabolic activity was assessed at 24 hours of treatment of MOLM-13 cells. Top 15 candidates were re-screened at 2 μM, and the cell metabolic activity was determined at 24 hours of treatment. In certain experiments, cell viability was determined by staining the cells with trypan blue at a 1/2 dilution and counting total number of viable cells upon treatment with UC-764864 or DMSO control. The cells were counted daily for 4 days using an automated cell counter (Countess II FL from Life Technologies). […] UC-764864 was added at the indicated concentrations and cells were incubated with drug for 3 days, at which point cell viability was measured by MTS according to manufacturer's instructions. […]

In the case of `CCc1ccc(C(=O)C=CSc2nc3ccc(C)cc3[nH]2)cc1` [UC-764864, 1-(4-ethylphenyl)-3-[(6-methyl-1H-benzimidazol-2-yl)sulfanyl]prop-2-en-1-one], the “reduction in colony formation vs vehicle” value [1] is reported as 20-95% and the “apoptosis (trypan blue uptake, cleavage of Caspase 3)” value (MOLM-13 cells) is reported as “increase in apoptosis”.

Source: patent US20220267753A1, “RATIONAL THERAPEUTIC TARGETING OF ONCOGENIC IMMUNE SIGNALING STATES IN MYELOID MALIGNANCIES VIA THE UBIQUITIN CONJUGATING ENZYME UBE2N” (CHILDREN'S HOSPITAL MEDICAL CENTER, priority 2019, published 2022)
